Test results published in patent US11260047B2, “Formulations of AG10” (Eidos Therapeutics, Inc., priority 2018, dated 2022).

Legend:
Format in all cases: in vivo
[1] = Pharmacokinetics of AG10 after oral administration in beagle dogs, Study No. 2; conditions: both sexes, dog, plasma, 20 mg/kg; for Cmax / AUC(0-t): 20 mg/kg oral, sex MF; for AUC(0-t): read-out: AUC0-24; for Tmax: read-out: time to maximal concentration (T max)
Method: The pharmacokinetics of AG10 were also determined following oral administration in non-naïve male and female beagle dogs (Study No. 2). The study design included three treatment groups (n=2/sex/group). Groups 1 and 2 received 5 mg/kg and 20 mg/kg AG10 in 0.5% methylcellulose (MC) formulations respectively. Group 3 animals received 20 mg/kg AG10 in gelatin capsule form. Blood samples were collected at pre-dose and approximately 2, 4, 6, 8, 12, and 24 hours post-dose. Plasma samples were assayed for AG10 by LC-MS/MS. Plasma exposures (AUC0-24) of AG10 in dogs administered 20 mg/kg AG10 as a suspension in 0.5% methylcellulose were similar to those obtained in Study No. 1 (Table 1). Plasma exposures of AG10 were also similar in dogs which were administered the same dose of AG10 either as a suspension in 0.5% methylcellulose or as a gelatin capsule without any excipients.

[2] = Pharmacokinetics of AG10 in dogs, oral gavage, Study No. 1; conditions: both sexes, dog, plasma
Method: Pharmacokinetics of AG10 were determined when administered once daily to dogs via oral gavage at 20, 60, and 200 mg/kg for 3 days (Study No. 1). Each group consisted of two animals/sex/group. Blood samples were collected from each animal on Day 1 at pre-dose, 0.25, 0.5, 1, 2, 4, 8, 12 and 24 hours post-dose, Day 3 at pre-dose, 0.25, 0.5, 1, 2, 4, 8, 12, 24, 48 and 72 hr post-dose. Plasma samples were assayed for AG10 by LC-MS/MS. In general, no sex differences in AG10 mean Cmax and AUC0-24 values were observed; therefore, results for the 20 mg/kg dose group are presented as combined sex values in Table 1 below.

[3] = Pharmacokinetics of AG10 tablets and capsule given orally to male beagle dogs, Study No. 3; conditions: for Tmax / Cmax / AUC(0-t): male, beagle, dog, plasma, po; for Tmax: dogs, read-out: time to maximal concentration (T max); for Cmax / AUC(0-t): male dogs; for AUC(0-t): read-out: AUC0-24
Method: AG10 was administered orally to 4 male beagle dogs each as a 50 mg tablet, 200 mg tablet, and a 200 mg capsule (No. 3). Blood samples were collected at pre-dose and approximately 0.25, 0.5, 1, 2, 4, 8, 24, 48, 72 and 96 hours post-dose. Plasma samples were assayed for AG10 by LC-MS/MS.

[4] = gelatin capsule without excipients

Cmax ([1]; 0.5% MC formulation): 8100 ng/mL
AUC(0-t) ([1]; 0.5% MC formulation): 71200 ng·h/mL
Tmax ([1]; capsule formulated without excipients): 2 h
Cmax [1, 4]: 10300 ng/mL
AUC(0-t) [1, 4]: 89300 ng·h/mL
Tmax ([1]; methylcellulose formulation): 2.5 ± 1 h
Cmax ([2]; 0.5% MC formulation, 20 mg/kg oral gavage, sex MF combined): 16100 ng/mL
AUC(0-t) ([2]; 0.5% MC formulation, 20 mg/kg oral gavage, sex MF combined, read-out: AUC0-24): 69100 ng·h/mL
Tmax ([2]; po, 20 mg/kg, methylcellulose formulation, read-out: time to maximal concentration (T max)): 0.44 ± 0.38 h
Tmax ([3]; 50 mg, 50 mg tablets): 0.5 h
Cmax ([3]; 50 mg, tablet 50 mg oral): 4660 ng/mL
AUC(0-t) ([3]; 50 mg, tablet 50 mg oral): 41500 ng·h/mL
Tmax ([3]; 200 mg, 200 mg capsules with excipient): 1.38 ± 0.75 h
Tmax ([3]; 200 mg, 200 mg tablets): 1 h
Cmax ([3]; 200 mg, capsule 200 mg oral): 9330 ng/mL
AUC(0-t) ([3]; 200 mg, capsule 200 mg oral): 65700 ng·h/mL
Cmax ([3]; 200 mg, tablet 200 mg oral): 13000 ng/mL
AUC(0-t) ([3]; 200 mg, tablet 200 mg oral): 88000 ng·h/mL
Cmax, 200 mg tablets compared with 200 mg capsules ([3]; unpaired t-test, P value 0.0788): not significantly different
AUC0-inf, 200 mg tablets compared with 200 mg capsules ([3]; unpaired t-test, P value 0.0995): not significantly different
SMILES: Cc1n[nH]c(C)c1CCCOc1cc(C(=O)O)ccc1F [AG10, 3-(3-(3,5-dimethyl-1H-pyrazol-4-yl)propoxy)-4-fluorobenzoic acid]
